Measurements as given in patent US8415342B2, “Besifloxacin ophthalmic composition for the treatment or control of infection” (Bausch & Lomb Incorporated, priority 2008, dated 2013).
Values after ≈ are worked out from the molar mass of the structure shown.

Key:
Test in all cases: MIC against defined topoisomerase mutants
Type in all cases: cell-based
[1] = tested on: S. aureus topoisomerase mutants; settings: Staphylococcus aureus
[2] = tested on: S. pneumoniae topoisomerase mutants; settings: Streptococcus pneumoniae
[3] = tested on: E. coli topoisomerase mutants; settings: Escherichia coli
Description: Furthermore, an experiment was conducted to assess the mechanism of action of besifloxacin in S. pneumoniae, S. aureus, and E. coli via step selections for isolates with decreased susceptibility to besifloxacin, as well as by testing for altered susceptibilities of ciprofloxacin-resistant variants of all three species containing genetically defined mutations in the quinolone resistance determining regions (QRDRs) of structural genes encoding DNA gyrase and topoisomerase IV (Table 2).

SMILES: O=C(O)c1cn(C2CC2)c2cc(N3CCNCC3)c(F)cc2c1=O [Ciprofloxacin]
- MIC ([1]; S. aureus Wild type): 1 µg/mL (≈ 3.02 µM)
- MIC ([1]; S. aureus parC S80F + gyrA S84L): 64 µg/mL
- MIC ([2]; S. pneumoniae parC S79Y): 8 µg/mL (≈ 24.1 µM)
- MIC ([2]; S. pneumoniae parC S79Y + gyrA S81F): 64 µg/mL
- MIC ([3]; E. coli Wild type): 0.008 µg/mL (≈ 0.0241 µM)
- MIC ([3]; E. coli gyrA D87Y (or S83L)): 0.12 µg/mL (≈ 0.362 µM)
- MIC ([3]; E. coli gyrA S83L + parC S80R): 4 µg/mL
- MIC ([3]; E. coli gyrA S83L + parE H445L): 0.12 µg/mL
- MIC ([3]; E. coli gyrB D426N): 0.03 µg/mL (≈ 0.0905 µM)
